{
  "source": "patent US8728539B2",
  "about": "“Method of enhancing intestinal pinocytosis of immunoglobulins in postnatal domestic mammals” (Incorporated Administrative Agency, National Agriculture …, priority 2004, dated 2014)",
  "key": {"calves (Holstein types) [1]": {"tested_on": "calves (Holstein types)", "test": "IgG in plasma of postnatal calves fed colostrum with added selenium, measured by radial immuno-diffusion (RID)", "format": "in vivo", "details": "for IgG in Plasma: plasma 24 hours post-parturition", "description": "In the example, colostrum added with selenium was administered to one of the two calves (Holstein types) in a pair, and colostrum without selenium was administered to the other calf. A total of 32 pairs of calves were employed for experimental purposes. For equalizing the experimental conditions of these two sets of calves, they were selected based on their proximities in body weight. The body weights ranged from 30.8-56.9 kg, and the differences between in body weight within a pair were less than 2.5 kg.\n(§1) As a supply source of selenium, sodium selenite was used. In order to avoid different absorption rates of immunoglobulins based on different types of colostrum, the same amounts of colostrum milked from the same source were fed to these two calves in a pair. The colostrums fed (frozen for preservation) were of the four types as follows: the first milking post-parturition (Colostrum 1), the second milking post-parturition (Colostrum 2), the third milking post-parturition (Colostrum 3), and the fourth milking post-parturition (Colostrum 4). 2 liters of Colostrum 1 (1 L×2 bottles) were taken, and for the rest, 4 liters (2L×2 bottles) were taken, respectively. 1 liter of Colostrum 1 within 2 hours post-parturition was fed, and then 2 liters of Colostrum 2, 3 and 4 were fed, respectively 12, 24 and 36 hours post-parturition. The concentrations of immunoglobulins in the colostrums used were 24.3-129.0 mg/ml, and those of selenium were 0.06-0.1 ppm (before adding selenium). The concentrations of immunoglobulins G (IgG) in plasma of calves 24 hours post-parturition were measured by means of radial immuno-diffusion (RID). The experiments as above were carried out while varying the selenium content based on the number of addition of selenium, i.e., (1) adding selenium only to Colostrum 1 (1.0-5.0 ppm), and (2) adding selenium to all four types of colostrum (0.2-4.0 ppm)."}, "[2]": {"test": "Selenium concentration in plasma of calves after administration (FIG. 4)", "format": "in vivo, calves (Holstein types)", "details": "3 ppm selenium, administered only once within 3 hours postnatal; versus no addition", "source_text": "as §1, with “ppm). […]” for “ppm).”"}, "calves (Holstein types) [3]": {"tested_on": "calves (Holstein types)", "test": "Absorption of lactalbumin into plasma of calves (FIG. 5)", "format": "in vivo", "details": "3 ppm selenium in first colostrum feed; 24 hours postnatal; versus no addition", "description": "To calves administered with colostrum with selenium, selenium was added only to the first colostrum feeds.\nTherefore, selenium is effective in absorption of nonimmunoglobulin proteins such as lactalbumin. Accordingly, selenium enhances pinocytosis, thereby enhancing immunoglobulin proteins or nonimmunoglobulin proteins."}, "calves (Holstein types) [4]": {"tested_on": "calves (Holstein types)", "test": "Biochemical blood tests (18 factors) for adverse effects of added selenium", "format": "in vivo", "details": "blood samples 24, 48 hours and 1 week post-parturition; versus colostrum without selenium", "description": "Moreover, the blood samples were taken 24, 48 hours and 1 week post-parturition respectively, and biochemical blood tests (with 18 factors) were carried out to investigate any adverse effects of added selenium on the health conditions of calves. There was little difference between the test results of the calves administered with colostrum added with selenium, and those of the calves administered with colostrum without selenium."}, "calves (Holstein types) [5]": {"tested_on": "calves (Holstein types)", "test": "IgG in plasma of postnatal calves fed colostrum with added selenium, measured by radial immuno-diffusion (RID)", "format": "in vivo"}, "[6]": {"details": "3 ppm selenium, first feed only, versus no addition"}},
  "data": [
    {"compound": "O=[Se]([O-])[O-].[Na+].[Na+]", "note": "[Se, sodium selenite]", "values": [
      {"measurement": "IgG in Plasma", "setting": "calves (Holstein types) [1]; 0.2 ppm Se added to all four colostrum feeds (4x), average of 3 calves", "value": 25.7, "unit": "mg/mL"},
      {"measurement": "IgG in Plasma", "setting": "calves (Holstein types) [1]; 1 ppm Se added only to first colostrum feed (1x), average of 3 calves", "value": 17, "unit": "mg/mL"},
      {"measurement": "IgG in Plasma", "setting": "calves (Holstein types) [1]; 1.0 ppm Se added to all four colostrum feeds (4x), average of 5 calves", "value": 32.9, "unit": "mg/mL"},
      {"measurement": "IgG in Plasma", "setting": "calves (Holstein types) [1]; 2 ppm Se added only to first colostrum feed (1x), average of 3 calves", "value": 16, "unit": "mg/mL"},
      {"measurement": "IgG in Plasma", "setting": "calves (Holstein types) [1]; 3 ppm Se added only to first colostrum feed (1x), average of 6 calves", "value": 21.5, "unit": "mg/mL"},
      {"measurement": "IgG in Plasma", "setting": "calves (Holstein types) [1]; 4 ppm Se added only to first colostrum feed (1x), average of 4 calves", "value": 17.4, "unit": "mg/mL"},
      {"measurement": "IgG concentration in plasma, four feeds with selenium versus first feed only with selenium", "setting": "calves (Holstein types) [1]; 4x versus 1x addition of selenium", "value": "about the same level"},
      {"measurement": "IgG in Plasma", "setting": "calves (Holstein types) [1]; 5 ppm Se added only to first colostrum feed (1x), average of 4 calves", "value": 23, "unit": "mg/mL"},
      {"measurement": "IgG concentrations in plasma versus calves given colostrum without selenium (FIGS. 2 and 3)", "setting": "calves (Holstein types) [1]; in most of the experimental conditions, 1x and 4x addition", "value": "shown to be higher"},
      {"measurement": "selenium level in blood, temporal change (FIG. 4)", "setting": "[2]", "value": "high selenium level in blood was maintained over 4 weeks postnatal"},
      {"measurement": "absorption of lactalbumin (FIG. 5)", "setting": "calves (Holstein types) [3]", "value": "enhances the absorption of lactalbumin"},
      {"measurement": "adverse effects on the health conditions of calves, biochemical blood tests (18 factors)", "setting": "calves (Holstein types) [4]", "value": "no adverse effects"},
      {"measurement": "duration of high immunoglobulin G level in blood (FIG. 7)", "setting": "calves (Holstein types) [5]; [6]", "value": "the high level against no addition was maintained over 14 days (2 weeks)"},
      {"measurement": "immunoglobulin G level in blood immediately after administration (FIG. 7)", "setting": "calves (Holstein types) [5]; [6]", "value": "immunoglobulin G level immediately after administration of selenium is high"},
      {"measurement": "IgG in Plasma", "setting": "calves (Holstein types) [5]; 5.0 ppm Se added to all four colostrum feeds (4x), plasma 24 hours post-parturition, average of 4 calves", "value": 24.6, "unit": "mg/mL"},
      {"measurement": "immunoglobulin G level in blood, selenium and colostrum administered separately (FIG. 6)", "setting": "calves (Holstein types) [5]; only 3 ppm selenium within 2 hours postnatal, then only colostrum at 12, 24, 36 hours, within 24 hours postnatal, versus no addition", "value": "absorption level of immunoglobulin G is high"}
    ]}
  ]
}
